The nature of data set [1]: Met bis-alkylation (bis-sulfonium staple) with linker c, 1,4-bis(bromomethyl)benzene (1.2 equiv), 1% HCOOH (pH ~3), 24 h. The following applies: the molecule shown is the open-chain precursor, MeCN/H2O 30:70 (SI: 1:3) + 1% HCOOH, small amount of DMF, 10.0 mM, 25.0 °C.
The test system of a further data set is HeLa cells. The experiment in a line: Flow cytometry cellular uptake in HeLa cells. The following applies: 10% fetal bovine serum, 5, 10, 20 µM, Fig. S5. The data set is classed as cell-based. (In general: In flow cytometry, cells or beads pass a laser one at a time.)
A short description of data set [2]: Met bis-alkylation (bis-sulfonium staple) of one unprotected peptide with different dihalide linkers (1.2 equiv), 1% HCOOH (pH ~3), 24 h. Conditions: the molecule shown is the open-chain precursor, MeCN/H2O 30:70 (SI: 1:3) + 1% HCOOH, small amount of DMF, 10.0 mM, 25.0 °C.
Data set [3] is described as follows: Met bis-alkylation (bis-sulfonium staple) with linker a, 1,3-bis(bromomethyl)benzene (1.2 equiv), 1% HCOOH (pH ~3), 24 h. Conditions: the molecule shown is the open-chain precursor, MeCN/H2O 30:70 (SI: 1:3) + 1% HCOOH, small amount of DMF, 10.0 mM, 25.0 °C.

Bounds are passed on as bounds.

Consider `CSCC[C@H](NC(=O)CNC(=O)[C@H](Cc1ccc(O)cc1)NC(=O)[C@@H]1CCCN1C(=O)[C@H](CC[S+](C)Cc1ccc(CBr)cc1)NC(=O)[C@H](Cc1c[nH]c2ccccc12)NC(C)=O)C(=O)N[C@@H](C)C(N)=O` (stereo partly drawn) [Ac-Trp-Met-Pro-Tyr-Gly-Met-Ala-NH2], for which the ring closure, conversion by HPLC in data set [1] (25-membered ring) came to 81%.
Regarding “FITC-βA-(cyclo-i)-MRRRM-NH2 (sidechain bridge or staple) [11i, peptide 11 cyclized using linker i]”, the “cellular uptake efficiency (flow cytometry) in the presence of serum” value in the data set with HeLa cells is “same tendency as in the absence of serum”.
`CSCC[C@H](NC(=O)[C@H](CC(=O)O)NC(=O)CNC(=O)[C@H](CCCNC(=N)N)NC(=O)[C@H](CC[S+](C)Cc1cccc(CBr)c1)NC(=O)[C@H](Cc1c[nH]c2ccccc12)NC(C)=O)C(N)=O` (stereo partly drawn) [Ac-Trp-Met-Arg-Gly-Asp-Met-NH2 + 1,3-bis(bromomethyl)benzene]: the ring closure, conversion by HPLC in data set [2] (24-membered ring) was found to be 88%.
For the compound `CSCC[C@H](NC(=O)[C@H](CC(=O)O)NC(=O)CNC(=O)[C@H](CCCNC(=N)N)NC(=O)[C@H](CC[S+](C)C/C=C/CBr)NC(=O)[C@H](Cc1c[nH]c2ccccc12)NC(C)=O)C(N)=O` (stereo partly drawn) [Ac-Trp-Met-Arg-Gly-Asp-Met-NH2 + (E)-1,4-dibromobut-2-ene], the ring closure, conversion by HPLC in data set [2] (23-membered ring) was found to be 93%.
In the case of `CSCC[C@H](NC(=O)[C@H](CC(C)C)NC(=O)[C@H](CS)NC(=O)[C@H](CC[S+](C)Cc1cccc(CBr)c1)NC(=O)[C@H](Cc1c[nH]c2ccccc12)NC(C)=O)C(=O)N[C@@H](C)C(N)=O` (stereo partly drawn) [Ac-Trp-Met-Cys-Leu-Met-Ala-NH2], the ring closure, conversion by HPLC in data set [3] (21-membered ring) is above 95%.
`CSCC[C@H](NC(=O)[C@H](Cc1c[nH]cn1)NC(=O)[C@@H]1CCCN1C(=O)[C@H](CC[S+](C)Cc1ccc(CBr)cc1)NC(=O)[C@H](Cc1c[nH]c2ccccc12)NC(C)=O)C(=O)N[C@@H](C)C(N)=O` (stereo partly drawn) [Ac-Trp-Met-Pro-His-Met-Ala-NH2]: the ring closure, conversion by HPLC in data set [1] (22-membered ring) was 74%.
Turning to `CSCC[C@H](NC(=O)[C@H](CC(=O)O)NC(=O)CNC(=O)[C@H](CCCNC(=N)N)NC(=O)[C@H](CC[S+](C)Cc1ccc(CBr)cc1)NC(=O)[C@H](Cc1c[nH]c2ccccc12)NC(C)=O)C(N)=O` (stereo partly drawn) [Ac-Trp-Met-Arg-Gly-Asp-Met-NH2 + 1,4-bis(bromomethyl)benzene], the ring closure, conversion by HPLC in data set [2] (25-membered ring) is 49%.
For the compound `CSCC[C@H](NC(=O)[C@H](CC(=O)O)NC(=O)CNC(=O)[C@H](CCCNC(=N)N)NC(=O)[C@H](CC[S+](C)Cc1ccc(-c2ccc(CBr)cc2)cc1)NC(=O)[C@H](Cc1c[nH]c2ccccc12)NC(C)=O)C(N)=O` (stereo partly shown), in data set [2] (29-membered ring), the ring closure, conversion by HPLC was 60%.
`CSCC[C@H](NC(=O)[C@H](CC(=O)O)NC(=O)CNC(=O)[C@H](CCCNC(=N)N)NC(=O)[C@H](CC[S+](C)CCCCI)NC(=O)[C@H](Cc1c[nH]c2ccccc12)NC(C)=O)C(N)=O` (stereo partly drawn) [Ac-Trp-Met-Arg-Gly-Asp-Met-NH2 + 1,4-diiodobutane]: in data set [2] (23-membered ring), the ring closure, conversion by HPLC stood at 0%.
Take `CSCC[C@H](NC(=O)[C@H](CC(=O)O)NC(=O)[C@@H](NC(=O)[C@H](Cc1c[nH]cn1)NC(=O)[C@H](CC[S+](C)Cc1ccc(CBr)cc1)NC(=O)[C@H](Cc1c[nH]c2ccccc12)NC(C)=O)C(C)C)C(=O)N[C@@H](C)C(N)=O` (stereo partly drawn) [Ac-Trp-Met-His-Val-Asp-Met-Ala-NH2]: in data set [1] (25-membered ring), the ring closure, conversion by HPLC came to 85%.
Take `CSCC[C@H](NC(=O)[C@H](Cc1c[nH]cn1)NC(=O)[C@@H]1CCCN1C(=O)[C@H](CC[S+](C)Cc1cccc(CBr)c1)NC(=O)[C@H](Cc1c[nH]c2ccccc12)NC(C)=O)C(=O)N[C@@H](C)C(N)=O` (stereo partly drawn) [Ac-Trp-Met-Pro-His-Met-Ala-NH2]: in data set [3] (21-membered ring), the ring closure, conversion by HPLC came out at 84%.
Regarding `CSCC[C@H](NC(=O)[C@H](CC(=O)O)NC(=O)CNC(=O)[C@H](CCCNC(=N)N)NC(=O)[C@H](CC[S+](C)Cc1nc2ccccc2nc1CBr)NC(=O)[C@H](Cc1c[nH]c2ccccc12)NC(C)=O)C(N)=O` (stereo partly shown), in data set [2] (23-membered ring), the ring closure, conversion by HPLC turned out to be 53%.
Still for that read-out and setting: in the case of `CSCC[C@H](NC(=O)[C@H](CC(=O)O)NC(=O)CNC(=O)[C@H](CCCNC(=N)N)NC(=O)[C@H](CC[S+](C)CCCCBr)NC(=O)[C@H](Cc1c[nH]c2ccccc12)NC(C)=O)C(N)=O` (stereo partly drawn) [Ac-Trp-Met-Arg-Gly-Asp-Met-NH2 + 1,4-dibromobutane] it was 0%.
Turning to `CSCC[C@H](NC(=O)[C@H](CC(=O)O)NC(=O)CNC(=O)[C@H](CCCNC(=N)N)NC(=O)[C@H](CC(=O)O)NC(=O)CNC(=O)[C@H](CCCNC(=N)N)NC(=O)[C@H](CC[S+](C)Cc1cccc(CBr)c1)NC(=O)[C@H](Cc1c[nH]c2ccccc12)NC(C)=O)C(N)=O` (stereo partly drawn) [Ac-Trp-Met-Arg-Gly-Asp-Arg-Gly-Asp-Met-NH2], the ring closure, conversion by HPLC in data set [3] (33-membered ring) turned out to be 85%.
Turning to `CSCC[C@H](NC(=O)CNC(=O)[C@H](Cc1ccc(O)cc1)NC(=O)[C@@H]1CCCN1C(=O)[C@H](CC[S+](C)Cc1cccc(CBr)c1)NC(=O)[C@H](Cc1c[nH]c2ccccc12)NC(C)=O)C(=O)N[C@@H](C)C(N)=O` (stereo partly drawn) [Ac-Trp-Met-Pro-Tyr-Gly-Met-Ala-NH2], in data set [3] (24-membered ring), the ring closure, conversion by HPLC amounted to 70%.
Consider `CSCC[C@H](NC(=O)[C@H](CC(=O)O)NC(=O)CNC(=O)[C@H](CCCNC(=N)N)NC(=O)[C@H](CC[S+](C)CC(=O)C(=O)CBr)NC(=O)[C@H](Cc1c[nH]c2ccccc12)NC(C)=O)C(N)=O` (stereo partly drawn) [Ac-Trp-Met-Arg-Gly-Asp-Met-NH2 + 1,4-dibromobutane-2,3-dione], for which, in data set [2] (23-membered ring), the ring closure, conversion by HPLC was determined as 64%.
On to `CSCC[C@H](NC(=O)[C@H](CC(=O)O)NC(=O)[C@@H](NC(=O)[C@H](Cc1c[nH]cn1)NC(=O)[C@H](CC[S+](C)Cc1cccc(CBr)c1)NC(=O)[C@H](Cc1c[nH]c2ccccc12)NC(C)=O)C(C)C)C(=O)N[C@@H](C)C(N)=O` (stereo partly drawn) [Ac-Trp-Met-His-Val-Asp-Met-Ala-NH2], for which the ring closure, conversion by HPLC in data set [3] (24-membered ring) stood at 73%.
`CSCC[C@H](NC(=O)[C@H](CCC(=O)O)NC(=O)[C@H](CCCCN)NC(=O)[C@H](CC[S+](C)Cc1cccc(CBr)c1)NC(=O)[C@H](Cc1c[nH]c2ccccc12)NC(C)=O)C(=O)N[C@@H](C)C(N)=O` (stereo partly drawn) [Ac-Trp-Met-Lys-Glu-Met-Ala-NH2]: in data set [3] (21-membered ring), the ring closure, conversion by HPLC stood at 85%.
`CSCC[C@H](NC(=O)[C@H](CC(=O)O)NC(=O)CNC(=O)[C@H](CCCNC(=N)N)NC(=O)[C@H](CC[S+](C)Cc1ccccc1CBr)NC(=O)[C@H](Cc1c[nH]c2ccccc12)NC(C)=O)C(N)=O` (stereo partly drawn) [Ac-Trp-Met-Arg-Gly-Asp-Met-NH2 + 1,2-bis(bromomethyl)benzene]: the ring closure, conversion by HPLC in data set [2] (23-membered ring) is 58%.
As for `CSCC[C@H](NC(=O)[C@H](CC(=O)O)NC(=O)CNC(=O)[C@H](CCCNC(=N)N)NC(=O)[C@H](CC(=O)O)NC(=O)CNC(=O)[C@H](CCCNC(=N)N)NC(=O)[C@H](CC[S+](C)Cc1ccc(CBr)cc1)NC(=O)[C@H](Cc1c[nH]c2ccccc12)NC(C)=O)C(N)=O` (stereo partly drawn) [Ac-Trp-Met-Arg-Gly-Asp-Arg-Gly-Asp-Met-NH2], the ring closure, conversion by HPLC in data set [1] (34-membered ring) amounted to 54%.
As to “FITC-βA-(cyclo-a)-MRRRM-NH2 (sidechain bridge or staple) [11a, peptide 11 cyclized using linker a]”, the “cellular uptake efficiency (flow cytometry) in the presence of serum” value with HeLa cells is listed as “same tendency as in the absence of serum”.
For the compound `CSCC[C@H](NC(=O)[C@H](CC(C)C)NC(=O)[C@H](CS)NC(=O)[C@H](CC[S+](C)Cc1ccc(CBr)cc1)NC(=O)[C@H](Cc1c[nH]c2ccccc12)NC(C)=O)C(=O)N[C@@H](C)C(N)=O` (stereo partly drawn) [Ac-Trp-Met-Cys-Leu-Met-Ala-NH2], the ring closure, conversion by HPLC in data set [1] (22-membered ring) is above 95%.
Same read-out and setting: in the case of `CSCC[C@H](NC(=O)[C@H](CCC(=O)O)NC(=O)[C@H](CCCCN)NC(=O)[C@H](CC[S+](C)Cc1ccc(CBr)cc1)NC(=O)[C@H](Cc1c[nH]c2ccccc12)NC(C)=O)C(=O)N[C@@H](C)C(N)=O` (stereo partly drawn) [Ac-Trp-Met-Lys-Glu-Met-Ala-NH2] it was 73%.
Turning to `CC[C@H](C)[C@H](NC(=O)[C@H](CCCCN)NC(=O)[C@H](CC[S+](C)Cc1cccc(CBr)c1)NC(=O)[C@H](Cc1c[nH]c2ccccc12)NC(C)=O)C(=O)N[C@@H](CCC(=O)O)C(=O)N[C@@H](CCSC)C(=O)N[C@@H](C)C(N)=O` (stereo partly drawn) [Ac-Trp-Met-Lys-Ile-Glu-Met-Ala-NH2], in data set [3] (24-membered ring), the ring closure, conversion by HPLC was 77%.
Regarding `CC[C@H](C)[C@H](NC(=O)[C@H](CCCCN)NC(=O)[C@H](CC[S+](C)Cc1ccc(CBr)cc1)NC(=O)[C@H](Cc1c[nH]c2ccccc12)NC(C)=O)C(=O)N[C@@H](CCC(=O)O)C(=O)N[C@@H](CCSC)C(=O)N[C@@H](C)C(N)=O` (stereo partly drawn) [Ac-Trp-Met-Lys-Ile-Glu-Met-Ala-NH2], in data set [1] (25-membered ring), the ring closure, conversion by HPLC was determined as 83%.

(Values after paper PMC5931191, “Reversible stapling of unprotected peptides via chemoselective methionine bis-alkylation/dealkylation” (Chemical Science, 2018).)
